Here are results for ten compounds from patent US20080114007A1 (priority 2006, published 2008).

The structures appear in SMILES notation. pIC50: −log10 of the molar value. Like-named read-outs stand apart in the source and are kept apart here.

For the test, the target named is CSF-1R (Homo sapiens, UniProt P07333). Kind of test: Peptide (non-phosphorylated) assay, fluorescence polarization competition immunoassay. Format: biochemical. As to conditions: 308 μM SYEGNSYTFIDPTQ peptide, 1 mM ATP, 80 min, mean of at least three determinations. A digest of the protocol:
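Human CSF-1R kinase reaction started with ATP and run 80 min at room temperature, then stopped with EDTA. Phosphopeptide detected by fluorescence polarization competition using anti-phosphotyrosine antibody and PTK green tracer after 30 min. Controls used 4% DMSO, with EDTA added before reaction start for positive controls.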
(Polarisation of emitted light reports the rotation of a fluorescent probe.)

The mark [1] stands for this setting: 0.7 nM CSF-1R, read-out: c-fms Peptide IC50.

Sequence of CSF-1R (P07333 20-972): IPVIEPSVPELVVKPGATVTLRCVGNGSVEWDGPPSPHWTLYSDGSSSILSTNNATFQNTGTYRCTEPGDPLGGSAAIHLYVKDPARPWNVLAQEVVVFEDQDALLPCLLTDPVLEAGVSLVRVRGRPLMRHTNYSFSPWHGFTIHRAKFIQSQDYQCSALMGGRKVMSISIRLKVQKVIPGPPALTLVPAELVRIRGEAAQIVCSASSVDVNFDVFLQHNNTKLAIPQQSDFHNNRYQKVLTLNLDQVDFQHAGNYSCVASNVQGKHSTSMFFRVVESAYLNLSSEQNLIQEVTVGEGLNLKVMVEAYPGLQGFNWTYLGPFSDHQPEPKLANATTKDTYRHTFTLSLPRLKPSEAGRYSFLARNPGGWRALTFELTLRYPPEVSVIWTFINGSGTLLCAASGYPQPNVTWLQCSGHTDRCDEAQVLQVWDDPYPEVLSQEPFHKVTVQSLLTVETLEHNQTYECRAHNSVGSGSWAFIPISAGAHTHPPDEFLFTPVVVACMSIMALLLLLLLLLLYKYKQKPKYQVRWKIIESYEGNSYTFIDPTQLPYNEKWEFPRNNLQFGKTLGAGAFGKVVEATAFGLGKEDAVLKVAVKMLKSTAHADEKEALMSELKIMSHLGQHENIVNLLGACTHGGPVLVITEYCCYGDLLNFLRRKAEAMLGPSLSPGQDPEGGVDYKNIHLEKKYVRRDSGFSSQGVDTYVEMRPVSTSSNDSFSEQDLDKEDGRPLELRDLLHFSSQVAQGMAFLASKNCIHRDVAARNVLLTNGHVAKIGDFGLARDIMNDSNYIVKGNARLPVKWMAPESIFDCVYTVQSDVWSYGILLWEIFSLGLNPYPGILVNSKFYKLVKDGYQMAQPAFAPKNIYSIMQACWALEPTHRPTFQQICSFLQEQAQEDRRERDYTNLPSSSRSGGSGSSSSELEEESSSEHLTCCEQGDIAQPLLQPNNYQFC

As usually defined, the pIC50 is the IC50 on a negative log10 scale, so that one unit is a factor of ten. For `CNCCS(=O)(=O)c1cccc(Nc2ncc3c(=O)c(C(=O)NOC)cn(-c4ccc5c(c4)CCC5)c3n2)c1` [Cpd 231, 8-indan-5-yl-2-[3-(2-methylamino-ethanesulfonyl)-phenylamino]-5-oxo-5,8-dihydro-pyrido[2,3-d]pyrimidine-6-carboxylic acid methoxy-amide], the pIC50 under setting [1] was 9.15.

In the case of `CCc1ccc(-n2cc(C(=O)NOC)c(=O)c3cnc(Nc4ccc(CCN5CCCC(F)(F)C5)cc4)nc32)cc1` [Cpd 232, 2-{4-[2-(3,3-difluoro-piperidin-1-yl)-ethyl]-phenylamino}-8-(4-ethyl-phenyl)-5-oxo-5,8-dihydro-pyrido[2,3-d]pyrimidine-6-carboxylic acid methoxy-amide], under setting [1], the pIC50 was 9.14.

Compound `CONC(=O)c1cn(-c2ccc3c(c2)CCC3)c2nc(Nc3ccc(CCN4CCC(F)(F)CC4)cc3)ncc2c1=O` [Cpd 234, 2-{4-[2-(4,4-difluoro-piperidin-1-yl)-ethyl]-phenylamino}-8-indan-5-yl-5-oxo-5,8-dihydro-pyrido[2,3-d]pyrimidine-6-carboxylic acid methoxy-amide] had a negative logarithm of the IC50 (pIC50) (c-fms Peptide IC50, 0.7 nM CSF-1R) of 8.77.

Consider `CONC(=O)c1cn(-c2ccc3c(c2)CCC3)c2nc(Nc3ccc(C4=CCN(C)CC4)cc3)ncc2c1=O` [Cpd 235, 8-indan-5-yl-2-[4-(1-methyl-1,2,3,6-tetrahydro-pyridin-4-yl)-phenylamino]-5-oxo-5,8-dihydro-pyrido[2,3-d]pyrimidine-6-carboxylic acid methoxy-amide], for which, under setting [1], the pIC50 was 9.27.

Consider `CONC(=O)c1cn(-c2ccc3c(c2)CCC3)c2nc(Nc3ccc([C@@]4(O)CCN(C)C[C@@H]4O)cc3)ncc2c1=O` [Cpd 236, 2-{4-[(3S,4S)-(3,4-dihydroxy-1-methyl-piperidin-4-yl)]-phenylamino}-8-indan-5-yl-5-oxo-5,8-dihydro-pyrido[2,3-d]pyrimidine-6-carboxylic acid methoxy-amide], for which the negative logarithm of the IC50 (pIC50) under setting [1] was 9.33.

As to `CONC(=O)c1cn(-c2ccc3c(c2)CCC3)c2nc(Nc3ccc(C4CCN(C)CC4(F)F)cc3)ncc2c1=O` (stereo not shown) [Cpd 237, 2-[4-(3,3-difluoro-1-methyl-piperidin-4-yl)-phenylamino]-8-indan-5-yl-5-oxo-5,8-dihydro-pyrido[2,3-d]pyrimidine-6-carboxylic acid methoxy-amide], the pIC50 under setting [1] was 9.15.

As for `CONC(=O)c1cn(-c2ccc3c(c2)CCC3)c2nc(Nc3ccc(CCN4CCC(O)CC4)cc3)ncc2c1=O` [Cpd 238, 2-{4-[2-(4-hydroxy-piperidin-1-yl)-ethyl]-phenylamino}-8-indan-5-yl-5-oxo-5,8-dihydro-pyrido[2,3-d]pyrimidine-6-carboxylic acid methoxy-amide], under setting [1], the negative logarithm of the IC50 (pIC50) was 9.19.

As for `CONC(=O)c1cn(-c2ccc3c(c2)CCC3)c2nc(Nc3ccc(CCN4CCC[C@@H](O)C4)cc3)ncc2c1=O` [Cpd 239, 2-{4-{2-[(3R)-(3-hydroxy-piperidin-1-yl)]-ethyl}-phenylamino}-8-indan-5-yl-5-oxo-5,8-dihydro-pyrido[2,3-d]pyrimidine-6-carboxylic acid methoxy-amide], the negative-log IC50 (pIC50) under setting [1] was 9.49.

As for `CCc1ccc(-n2cc(C(=O)NOC)c(=O)c3cnc(Nc4ccc(CCN5CCC[C@@H](O)C5)cc4)nc32)cc1` [Cpd 240, 8-(4-ethyl-phenyl)-2-(4-{2-[(3R)-(3-hydroxy-piperidin-1-yl)]-ethyl}-phenylamino)-5-oxo-5,8-dihydro-pyrido[2,3-d]pyrimidine-6-carboxylic acid methoxy-amide], the negative logarithm of the IC50 (pIC50) under setting [1] was 9.55.

As for `CONC(=O)c1cn(-c2ccc3c(c2)CCC3)c2nc(Nc3ccc(CCN4CCC(F)(F)C4)cc3)ncc2c1=O` [Cpd 241, 2-{4-[2-(3,3-difluoro-pyrrolidin-1-yl)-ethyl]-phenylamino}-8-indan-5-yl-5-oxo-5,8-dihydro-pyrido[2,3-d]pyrimidine-6-carboxylic acid methoxy-amide], the pIC50 under setting [1] was 8.77.
